Drawing on patent publication US9051313B2, “Apoptosis signal-regulating kinase inhibitors” (Gilead Sciences, Inc., priority 2012, dated 2015), this text covers IC50 and EC50 for 17 molecules.

The term IC50 denotes the midpoint of a concentration-inhibition curve. What is called EC50 is the concentration needed to bring the measured effect to its halfway point. Low values mean greater potency, high ones weaker potency.

Experiment [1] concerns the target recombinant human ASK1 kinase (Homo sapiens (Human), UniProt Q99683). The experiment in a line: TR-FRET ASK1 kinase assay (HTRF KinEASE-STK). The experiment is classed as biochemical. An excerpt:
Dephosphorylated recombinant human ASK1 kinase was from Gilead Sciences. […] ATP (catalogue # 7724) was from Affymetrix (Santa Clara, Calif.) and test compounds were from Gilead Sciences. HTRF KinEASE™-STK S3 kit was obtained from Cisbio (Bedford, Mass.). All other reagents were of the highest grade commercially available. The assay measures the phosphorylation level of a biotinylated peptide substrate by the ASK1 kinase using HTRF detection (6.1). This is a competitive, time-resolved fluorescence resonance energy transfer (TR-FRET) immunoassay, based on HTRF® KinEASE™-STK manual from Cisbio (6.1). […] Peptide antibody labeled with 1× Eu^3+ Cryptate buffer containing 10 mM EDTA and 125 nM Streptavidin XL665 are added to stop the reaction and phosphorylated peptide substrate is detected using Envision 2103 Multilabeled reader from PerkinElmer. The fluorescence is measured at 615 nm (Cryptate) and 665 nm (XL665) and a ratio of 665 nm/615 nm is calculated for each well. The resulting TR-FRET level (a ratio of 665 nm/615 nm) is proportional to the phosphorylation level. Under these assay conditions, the degree of phosphorylation of peptide substrate was linear with time and concentration for the enzyme. The assay system yielded consistent results with regard to Km and specific activities for the enzyme. For inhibition experiments (IC50 values), activities were performed with constant concentrations of ATP, peptide and several fixed concentrations of inhibitors. […] All enzyme activity data are reported as an average of quadruplicate determination. […] Enzyme activity is expressed as the amount of Phosphate incorporated into substrate peptide from ATP. Range is the maximum y range (no inhibitor, DMSO control) and s is a slope factor (6.2). Results
Background: TR-FRET usually uses a lanthanide donor and a delayed reading to cut background.

In experiment [2] the target is ASK1 (kinase active, 631-1381 of rat ASK1 cDNA) in 293/AP1-Luc cells (Rattus norvegicus, UniProt A0A8I6AEL0). The experiment in a line: ASK1 293 cell-based assay (Cellular EC50), AP-1:luciferase reporter. To be noted: 293/AP1-Luc cells infected with adenovirus expressing ASK1, 24 hours. Here is the method:
ASK1 (Apoptosis Signal-Regulating Kinase 1) 293 cell-based assay (Cellular EC50)
The cellular potency of compounds was assayed in cells stably expressing an AP-1: luciferase reporter construct (293/AP1-Luc cells—Panomics Inc., 6519 Dumbarton Circle, Fremont, Calif.). Cells were infected with an adenovirus expressing kinase active ASK1 (631-1381 of rat ASK1 cDNA), which will activate the AP-1 transcription factor and increase the expression of luciferase. Inhibitors of ASK1 will decrease the enzyme activity of ASK1 and therefore decrease the activity of AP-1 transcription factor and the expression of luciferase.
2. Reference Materials • 1. Panomics 293/AP1-Luc stable cell-line product insert. • 2. Promega Steady-Glo Luciferase Assay System product insert. 3. Media Required 3. Complete Growth Medium, “CGM” • a. DMEM (MediaTech) • b. 10% FBS • c. 1% PSG • d. 100 ug/mL HygromycinB 4. Assay Medium, “AM” • a. DMEM (Invitrogen) • b. 25 mM HEPES • c. 1 mM Sodium Pyruvate • d. 1% PSG 4. Methods Maintenance: • 1. 293/AP1-Luc Maintain 293/Acells per vendor's instructions; harvest cells at ˜80% confluence in T150 flasks as follows: • a. Aspirate media, wash gently with ˜12 mL sterile D-PBS, aspirate. • b. Add 5 mL Trypsin-EDTA, tilt gently to coat flask, and incubate ˜5 min. at 37° C. • c. […] Aspirate media from cell pellet, add 20 to 30 mL CGM, resuspend pellet by pipeting 6×, pass through cell strainer to disperse clumps (if necessary), and count cells with hemocytometer. Assay Day 1: 2. Harvest cells as above, except resuspend cell pellet. Count cells and dilute to 1.5×10^5 cells per mL; add adenovirus such that there are 5 infectious forming units per cell. 3. Prime (20 to 30 mL) and plate cells in Greiner poly-D-Lysine coated 384-well plates at 1.2×10^4 cells per well using BioTek uFill (80 uL per well). 4. Immediately dose plates with 0.4 uL of compound dose series (in 100% DMSO) incubate 24 hours in humidified incubator (37° C., 5% CO2). Assay Day 2: 5. Process plates (per manufacturer's instructions) as follows: • a. Set plates in laminar flow hood & uncover for 30 minutes at room temperature to cool. • b. Remove 60 uL of AM from assay wells • c. Add 20 uL per well Steady-Glo Firefly substrate, let sit for 10-20 minutes at room temperature • d. Cover bottom of assay plates with white backing tape. • e. Acquire data on a […] plate reader

The mark [3] stands for this setting: Compounds 6-17, same competitive TR-FRET immunoassay.
The mark [4] stands for this setting: TR-FRET, 100 μM ATP, 4 nM ASK1 kinase, average of quadruplicate.

Each structure is given as a SMILES string.

ASK1 (kinase active, 631-1381 of rat ASK1 cDNA) in 293/AP1-Luc cells, sequence (A0A8I6AEL0 1-1381): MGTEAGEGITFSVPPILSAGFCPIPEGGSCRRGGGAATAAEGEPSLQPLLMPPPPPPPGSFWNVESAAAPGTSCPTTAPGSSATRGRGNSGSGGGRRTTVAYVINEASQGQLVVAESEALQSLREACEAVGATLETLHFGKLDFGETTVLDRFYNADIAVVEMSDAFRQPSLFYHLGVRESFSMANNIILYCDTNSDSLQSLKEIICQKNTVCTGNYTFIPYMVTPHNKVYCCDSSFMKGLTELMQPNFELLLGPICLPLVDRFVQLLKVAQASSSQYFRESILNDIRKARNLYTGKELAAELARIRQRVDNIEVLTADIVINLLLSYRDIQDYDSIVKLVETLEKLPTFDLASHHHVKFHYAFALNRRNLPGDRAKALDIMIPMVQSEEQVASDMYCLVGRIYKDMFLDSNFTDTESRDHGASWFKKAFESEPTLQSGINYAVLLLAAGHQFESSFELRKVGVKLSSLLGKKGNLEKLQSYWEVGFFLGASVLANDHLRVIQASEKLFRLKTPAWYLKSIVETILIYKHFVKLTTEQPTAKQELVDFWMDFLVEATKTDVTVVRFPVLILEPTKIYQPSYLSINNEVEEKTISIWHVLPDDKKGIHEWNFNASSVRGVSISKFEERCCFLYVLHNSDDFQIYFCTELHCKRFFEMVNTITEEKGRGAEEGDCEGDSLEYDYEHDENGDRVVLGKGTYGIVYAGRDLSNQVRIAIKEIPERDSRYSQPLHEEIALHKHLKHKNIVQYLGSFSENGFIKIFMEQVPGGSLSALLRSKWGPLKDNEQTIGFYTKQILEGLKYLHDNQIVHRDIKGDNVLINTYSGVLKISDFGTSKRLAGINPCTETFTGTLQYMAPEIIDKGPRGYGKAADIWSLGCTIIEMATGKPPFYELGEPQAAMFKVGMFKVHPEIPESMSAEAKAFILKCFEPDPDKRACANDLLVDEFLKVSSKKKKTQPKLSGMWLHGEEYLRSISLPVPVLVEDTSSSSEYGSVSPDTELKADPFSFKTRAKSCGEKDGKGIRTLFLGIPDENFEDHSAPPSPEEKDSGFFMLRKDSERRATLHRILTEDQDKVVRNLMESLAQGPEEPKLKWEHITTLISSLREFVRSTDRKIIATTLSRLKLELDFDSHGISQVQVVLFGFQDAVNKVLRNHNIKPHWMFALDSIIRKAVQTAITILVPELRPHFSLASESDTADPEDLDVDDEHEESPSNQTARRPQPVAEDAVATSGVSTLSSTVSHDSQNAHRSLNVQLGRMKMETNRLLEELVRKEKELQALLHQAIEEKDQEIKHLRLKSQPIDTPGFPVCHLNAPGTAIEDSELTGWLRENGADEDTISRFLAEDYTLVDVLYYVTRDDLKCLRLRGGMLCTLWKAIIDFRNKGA
recombinant human ASK1 kinase, sequence (Q99683 whole entry): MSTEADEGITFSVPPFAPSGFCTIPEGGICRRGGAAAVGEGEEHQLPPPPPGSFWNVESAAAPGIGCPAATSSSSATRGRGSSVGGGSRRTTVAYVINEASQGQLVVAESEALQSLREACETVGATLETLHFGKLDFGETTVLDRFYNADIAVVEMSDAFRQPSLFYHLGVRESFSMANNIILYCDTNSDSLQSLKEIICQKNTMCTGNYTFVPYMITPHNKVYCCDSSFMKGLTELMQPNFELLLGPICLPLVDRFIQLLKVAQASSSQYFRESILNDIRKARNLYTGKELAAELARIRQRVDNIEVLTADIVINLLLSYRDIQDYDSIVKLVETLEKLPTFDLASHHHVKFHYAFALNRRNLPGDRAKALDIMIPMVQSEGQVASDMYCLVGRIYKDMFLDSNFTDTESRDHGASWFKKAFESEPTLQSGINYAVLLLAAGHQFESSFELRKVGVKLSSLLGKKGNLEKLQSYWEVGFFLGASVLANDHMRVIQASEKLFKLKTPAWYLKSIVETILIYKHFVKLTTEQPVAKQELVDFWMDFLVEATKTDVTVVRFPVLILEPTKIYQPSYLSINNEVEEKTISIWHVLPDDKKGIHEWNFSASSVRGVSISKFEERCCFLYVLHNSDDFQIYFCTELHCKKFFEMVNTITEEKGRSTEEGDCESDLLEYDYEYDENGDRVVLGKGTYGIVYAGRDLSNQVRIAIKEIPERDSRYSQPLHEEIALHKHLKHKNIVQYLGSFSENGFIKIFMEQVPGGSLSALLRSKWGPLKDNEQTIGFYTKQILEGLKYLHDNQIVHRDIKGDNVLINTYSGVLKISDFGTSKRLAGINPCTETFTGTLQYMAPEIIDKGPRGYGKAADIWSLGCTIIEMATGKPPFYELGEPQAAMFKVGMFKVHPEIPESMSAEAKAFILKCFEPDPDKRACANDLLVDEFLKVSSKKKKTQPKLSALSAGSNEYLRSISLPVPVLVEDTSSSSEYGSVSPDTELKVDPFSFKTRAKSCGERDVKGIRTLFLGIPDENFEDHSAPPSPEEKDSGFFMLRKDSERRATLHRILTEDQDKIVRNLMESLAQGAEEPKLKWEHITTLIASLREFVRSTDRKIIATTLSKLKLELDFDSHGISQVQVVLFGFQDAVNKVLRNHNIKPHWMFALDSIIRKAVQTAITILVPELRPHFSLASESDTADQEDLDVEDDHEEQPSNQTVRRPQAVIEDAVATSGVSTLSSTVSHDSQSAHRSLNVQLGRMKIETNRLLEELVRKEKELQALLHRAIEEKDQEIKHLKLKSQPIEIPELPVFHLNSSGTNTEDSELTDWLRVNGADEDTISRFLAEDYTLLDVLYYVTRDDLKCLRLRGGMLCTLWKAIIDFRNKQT

Regarding `CC1(O)CCN(c2cnc(C(=O)Nc3csc(-c4nncn4C4CC4)n3)cc2-n2cnc(C3CC3)c2)CC1` [Example 15, 4-(4-cyclopropylimidazol-1-yl)-N-[2-(4-cyclopropyl-1,2,4-triazol-3-yl)-1,3-thiazol-4-yl]-5-(4-hydroxy-4-methylpiperidin-1-yl)pyridine-2-carboxamide], the IC50 in experiment [1] (setting [3]) amounted to 2.5 nM. On to `C[C@H](n1cnnc1-c1nc(NC(=O)c2cc(-n3cnc(C4CC4)c3)c(N(C)C)cn2)cs1)C(F)(F)F` [Example 5, (S)-4-(4-cyclopropyl-1H-imidazol-1-yl)-5-(dimethylamino)-N-(2-(4-(1,1,1-trifluoropropan-2-yl)-4H-1,2,4-triazol-3-yl)thiazol-4-yl)picolinamide], for which, in experiment [1] (setting [4]), the IC50 turned out to be 1.88 nM. For the same molecule, a half-maximal effect in experiment [2] (EC50) was put at 7.12 nM. In the case of `C[C@H](n1cnnc1-c1nc(NC(=O)c2cc(-n3cnc(C4CC4)c3)c(N3CCCC3)cn2)cs1)C(F)(F)F` [Example 8, (S)-4-(4-cyclopropyl-1H-imidazol-1-yl)-5-(pyrrolidin-1-yl)-N-(2-(4-(1,1,1-trifluoropropan-2-yl)-4H-1,2,4-triazol-3-yl)thiazol-4-yl)picolinamide], the IC50 in experiment [1] (setting [3]) amounted to 2.2 nM. For the molecule `C[C@H](n1cnnc1-c1nc(NC(=O)c2cc(-n3cnc(C4CC4)c3)c(N3CCC(C)(O)CC3)cn2)cs1)C(F)(F)F` [Example 14, (S)-4-(4-cyclopropyl-1H-imidazol-1-yl)-5-(4-hydroxy-4-methylpiperidin-1-yl)-N-(2-(4-(1,1,1-trifluoropropan-2-yl)-4H-1,2,4-triazol-3-yl)thiazol-4-yl)picolinamide], the IC50 in experiment [1] (setting [3]) is 1.8 nM.

`O=C(Nc1csc(-c2nncn2C2CC2)n1)c1cc(-n2cnc(C3CC3)c2)c(N2CCOCC2)cn1` [Example 1, 4-(4-cyclopropyl-1H-imidazol-1-yl)-N-(2-(4-cyclopropyl-4H-1,2,4-triazol-3-yl)thiazol-4-yl)-5-morpholinopicolinamide]: the IC50 in experiment [1] (setting [4]) came to 1.44 nM. For the same molecule, it took 13.2 nM to reach a half-maximal effect in experiment [2] (EC50). Regarding `CN1CCN(c2cnc(C(=O)Nc3csc(-c4nncn4C4CC4)n3)cc2-n2cnc(C3CC3)c2)CC1` [Example 17, 4-(4-cyclopropylimidazol-1-yl)-N-[2-(4-cyclopropyl-1,2,4-triazol-3-yl)-1,3-thiazol-4-yl]-5-(4-methylpiperazin-1-yl)pyridine-2-carboxamide], the 50% inhibitory concentration (IC50) in experiment [1] (setting [3]) was determined as 3.1 nM. On the same count and under the same terms, the same measure for `C[C@H](n1cnnc1-c1nc(NC(=O)c2cc(-n3cnc(C4CC4)c3)c(N3CCC3)cn2)cs1)C(F)(F)F` [Example 7, (S)-5-(azetidin-1-yl)-4-(4-cyclopropyl-1H-imidazol-1-yl)-N-(2-(4-(1,1,1-trifluoropropan-2-yl)-4H-1,2,4-triazol-3-yl)thiazol-4-yl)picolinamide]: 1.7 nM; for `O=C(Nc1csc(-c2nncn2C2CC2)n1)c1cc(-n2cnc(C3CC3)c2)c(N2CCCC2)cn1` [Example 9, 4-(4-cyclopropylimidazol-1-yl)-N-[2-(4-cyclopropyl-1,2,4-triazol-3-yl)-1,3-thiazol-4-yl]-5-pyrrolidin-1-ylpyridine-2-carboxamide]: 1.9 nM. On to `C[C@H](n1cnnc1-c1nc(NC(=O)c2cc(-n3cnc(C4CC4)c3)c(N3CCOCC3)cn2)cs1)C(F)(F)F` [Example 3, (S)-4-(4-cyclopropyl-1H-imidazol-1-yl)-5-morpholino-N-(2-(4-(1,1,1-trifluoropropan-2-yl)-4H-1,2,4-triazol-3-yl)thiazol-4-yl)picolinamide], for which the IC50 in experiment [1] (setting [4]) amounted to 2.62 nM. This molecule displayed an EC50 in experiment [2] of 6.74 nM.

As to `C[C@H](n1cnnc1-c1nc(NC(=O)c2cc(-n3cnc(C4CC4)c3)c(N3CCCCC3)cn2)cs1)C(F)(F)F` [Example 13, (S)-4-(4-cyclopropyl-1H-imidazol-1-yl)-5-(piperidin-1-yl)-N-(2-(4-(1,1,1-trifluoropropan-2-yl)-4H-1,2,4-triazol-3-yl)thiazol-4-yl)picolinamide], the IC50 in experiment [1] (setting [3]) turned out to be 0.7 nM. On to `C[C@H](n1cnnc1-c1nc(NC(=O)c2cc(-n3cnc(C4CC4)c3)c(N3CC(C)(O)C3)cn2)cs1)C(F)(F)F` [Example 4, (S)-4-(4-cyclopropyl-1H-imidazol-1-yl)-5-(3-hydroxy-3-methylazetidin-1-yl)-N-(2-(4-(1,1,1-trifluoropropan-2-yl)-4H-1,2,4-triazol-3-yl)thiazol-4-yl)picolinamide], for which, in experiment [1] (setting [4]), the IC50 amounted to 1.69 nM. Moreover, in experiment [2], the EC50 turned out to be 5.21 nM.

As for `O=C(Nc1csc(-c2nncn2C2CC2)n1)c1cc(-n2cnc(C3CC3)c2)c(N2CCC(O)C2)cn1` (stereo not shown) [Example 10, 4-(4-cyclopropylimidazol-1-yl)-N-[2-(4-cyclopropyl-1,2,4-triazol-3-yl)-1,3-thiazol-4-yl]-5-(3-hydroxypyrrolidin-1-yl)pyridine-2-carboxamide], the IC50 in experiment [1] (setting [3]) is 3 nM.

With `CC1(O)CN(c2cnc(C(=O)Nc3csc(-c4nncn4C4CC4)n3)cc2-n2cnc(C3CC3)c2)C1` [Example 2, 4-(4-cyclopropyl-1H-imidazol-1-yl)-N-(2-(4-cyclopropyl-4H-1,2,4-triazol-3-yl)thiazol-4-yl)-5-(3-hydroxy-3-methylazetidin-1-yl)picolinamide], in experiment [1] (setting [4]), the IC50 was 1.58 nM. Also, the EC50 in experiment [2] was found to be 11.2 nM. For the molecule `C[C@H](n1cnnc1-c1nc(NC(=O)c2cc(-n3cnc(C4CC4)c3)c(N3CCN(C)CC3)cn2)cs1)C(F)(F)F` [Example 16, (S)-4-(4-cyclopropyl-1H-imidazol-1-yl)-5-(4-methylpiperazin-1-yl)-N-(2-(4-(1,1,1-trifluoropropan-2-yl)-4H-1,2,4-triazol-3-yl)thiazol-4-yl)picolinamide], in experiment [1] (setting [3]), the half-inhibitory concentration (IC50) was determined as 2.1 nM. On the same count and under the same terms, under `C[C@H](n1cnnc1-c1nc(NC(=O)c2cc(-n3cnc(C4CC4)c3)c(N3CCC(O)C3)cn2)cs1)C(F)(F)F` (stereo partly drawn) [Example 11, 4-(4-cyclopropyl-1H-imidazol-1-yl)-5-(3-hydroxypyrrolidin-1-yl)-N-(2-(4-((S)-1,1,1-trifluoropropan-2-yl)-4H-1,2,4-triazol-3-yl)thiazol-4-yl)picolinamide] stands 2.2 nM; under `O=C(Nc1csc(-c2nncn2C2CC2)n1)c1cc(-n2cnc(C3CC3)c2)c(N2CCCCC2)cn1` [Example 12, 4-(4-cyclopropylimidazol-1-yl)-N-[2-(4-cyclopropyl-1,2,4-triazol-3-yl)-1,3-thiazol-4-yl]-5-piperidin-1-ylpyridine-2-carboxamide], 2 nM; under `O=C(Nc1csc(-c2nncn2C2CC2)n1)c1cc(-n2cnc(C3CC3)c2)c(N2CCC2)cn1` [Example 6, 5-(azetidin-1-yl)-4-(4-cyclopropylimidazol-1-yl)-N-[2-(4-cyclopropyl-1,2,4-triazol-3-yl)-1,3-thiazol-4-yl]pyridine-2-carboxamide], 2.4 nM.
